Where two headings read alike, the source gives them in different places.
Molecular target: T1, cloned human dopamine D3 receptors (Homo sapiens, UniProt P35462)
T1 construct: expressed in transfected cells; membrane homogenate
Test: [N-Methyl-3H]Spiroperidol binding to cloned human dopamine D3 receptors
Text: [N-Methyl-^3H]Spiroperidol Binding to Cloned Human Dopamine D3 Receptors
This assay measures the in vitro activity of compounds on cloned human dopamine (D3) receptors and predicts the direct dopamine-blocking properties of putative neuropsychiatric agents at human dopamine D3 receptors.
The D3 gene was isolated from a human striatal cDNA library (Stratagene). The gene was sequenced and sub-cloned into the expression vector RC/RSV (Invitrogen). CHO (Chinese Hamster Ovary) cells were stably transfected with 10 μg of the D3/RSV plasmid using the DOTAP method from Boehringer Mannheim and 72 clones that were G418 resistant were isolated. Using mRNA and binding displacement data a single high expressing clone was identified. This clone was then grown in large batches for the purpose of developing a 96 well format assay.
• 1. One plate (10 cm) with approximately 2-3 million D3 cells per plate is incubated with 1 ml of Trypsin-EDTA at room temperature for ˜2 min or until cells have lifted off plates. Four ml of Ham's F12+10% Fetal Bovine Serum+1% Penicillin/Streptomycin+G418 (400 μg/ml) medium are added to resuspend cells and 1 ml of this is added to each large plate (15 cm) containing 19 ml of the same medium as mentioned above. • 2. The 5 large plates are incubated at 37° C.+5% CO2 for ˜3 days or until the cells are confluent. • 3. After these plates are confluent, they are split into 10 large plates. Medium is aspirated off, 2 ml of Trypsin-EDTA are added to each plate and plates are incubated at RT for 2 min or until cells have lifted off the plate. Eight ml of the F12 medium (same medium as #1 above) are added to each plate (10 ml total) to resuspend the cells and 5 ml are transferred to the 2 new plates containing 15 ml of the F12 media. • 4. The 10 large plates are incubated at 37° C.+5% CO2 for ˜2 days or until the cells are confluent. • 5. The 10 large plates are split into 60 large plates (using Trypsin-EDTA as #3 except 4 ml of F12 medium are added to resuspend cells and 1 ml is aliquoted to 6 new plates containing 19 ml of F12 medium each). • 6. Plates are incubated at 37° C.+5% CO2 for ˜3 days or until cell are confluent. • 7. The 60 large plates are then split into 60 roller bottles (100-150 million cells/bottle). Medium is aspirated off, 2 ml of Trypsin-EDTA are added to each plate and incubated at RT for ˜2 minutes or until cells have lifted off plates. Eight ml of F12 medium are added to each plate to resuspend cells and the entire 10 ml are added to 1 roller bottle containing 90 ml of the F12 medium. • 8. The 60 roller bottles are immediately placed on their sides and transferred to the roller bottle incubator. They are incubated at 37° C.+5% CO2 for ˜3-5 days. Cells are spun at 30-40% motor speed in the Form a incubator. • 9. Medium is poured off and cells are washed 2× in PBS. • 10. Cells are then scraped off in 20 ml of PBS and the bottles are rinsed again with 5 ml of PBS to remove any remaining cells. Cells are stored on ice before membrane preparation. • 11. The yield for 60 D3 roller bottles has varied from ˜260-500 mg. • Note: All tissue culture reagents are from Gibco-BRL. C. Membrane Preparation
The cells are harvested into 250 ml centrifuge tubes with 100 volumes of cold phosphate buffered saline (PBS) and spun down (1200×G for 10 min at 4° C.). The medium is removed and 100 ml PBS are added to each centrifuge tube, cells are resuspened and spun down again. The PBS is removed and the final pellet is homogenized in an appropriate volume of 10% DMSO with a polytron on ice at a medium setting.
A 200 μl sample membrane homogenate is added to 200 μl of 1% SDS, vortexed and allowed to stand for 5 min. Aliquots (25, 50 and 100 μl) of this mixture are assayed in duplicate following the standard Bio-Rad DC protein assay protocol (kit catalog number 500-0112) and using reagent S. Absorbance readings are made at 750 nm (note: the most accurate protein OD readings are between 0.1-0.5 units). […]

T1 sequence (P35462 whole entry): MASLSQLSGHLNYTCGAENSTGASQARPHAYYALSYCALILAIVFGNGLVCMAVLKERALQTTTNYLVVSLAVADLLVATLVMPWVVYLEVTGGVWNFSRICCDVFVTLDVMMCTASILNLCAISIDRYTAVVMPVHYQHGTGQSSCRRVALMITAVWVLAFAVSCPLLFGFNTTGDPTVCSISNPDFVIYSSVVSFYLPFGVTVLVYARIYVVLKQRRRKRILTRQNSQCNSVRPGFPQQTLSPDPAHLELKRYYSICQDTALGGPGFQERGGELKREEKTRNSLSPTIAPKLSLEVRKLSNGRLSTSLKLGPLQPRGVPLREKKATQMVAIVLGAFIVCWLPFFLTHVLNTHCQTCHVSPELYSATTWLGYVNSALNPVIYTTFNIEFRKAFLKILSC

Row | SMILES | Ki (read-out: D3 Ki) [nM] | Ki (read-out: d3Ki) [nM]
1 | O=C(c1ccc(Cl)cc1)C1CCN(C(=O)C2CC2CN2CCC(c3noc4ccsc34)CC2)CC1 (racemic) [compound 831458] | 7.43 | –
2 | COc1c(F)ccc2c(C3CCN(C[C@@H]4C[C@H]4C(=O)N[C@H]4CC[C@H](C)CC4)CC3)noc12 [compound 831361, 2R-[4-(6-Fluoro-7-methoxy-benzo[d]isoxazol-3-yl)-piperidin-1-ylmethyl]-1R-cyclopranecarboxylic acid (trans-4-methyl-cyclohexyl)-amide] | 1.75 | –
3 | O=C(NCCCN1CCCCC1)[C@@H]1C[C@H]1CN1CCC(c2noc3cc(C(F)(F)F)ccc23)CC1 [A002287764] | 0.48 | –
4 | O=C(C1CC1CN1CCC(c2noc3ccsc23)CC1)N1CCC(n2c(=O)[nH]c3ccccc32)CC1 (racemic) [compound 831737] | 1.25 | –
5 | COc1cccc2c(C3CCN(C[C@@H]4C[C@H]4C(=O)NCCCc4ccccc4)CC3)noc12 [compound 832102] | 81.5 | –
6 | O=C(NC1CCN(Cc2cccc(C(F)(F)F)c2)CC1)C1CC1CN1CCC(c2noc3ccsc23)CC1 (racemic) [compound 831831] | 6.31 | –
7 | O=C(NCCCN1CCCCC1)[C@@H]1C[C@H]1CN1CCC(c2nn(-c3ccc(F)cc3)c3cc(F)ccc23)CC1 [compound 833157] | 43.9 | –
8 | O=C(NC1CCN(Cc2ccc(Oc3ccccc3)cc2)CC1)C1CC1CN1CCC(c2noc3ccsc23)CC1 (racemic) [compound 831820] | 6.54 | –
9 | O=C([C@@H]1C[C@H]1CN1CCC(c2noc3ccsc23)CC1)N1CCN(CCCc2ccccc2)CC1 [compound 833131] | 16.8 | –
10 | O=C(C1CC1CN1CCC(c2noc3ccsc23)CC1)N1CCN(S(=O)(=O)C=Cc2ccccc2)CC1 (racemic) [compound 831838] | 141 | –
11 | COc1cccc2c(C3CCN(C[C@@H]4C[C@H]4C(=O)N[C@H]4CC[C@H](C)CC4)CC3)noc12 [compound 831809] | 0.0284 | –
12 | O=C([C@@H]1C[C@H]1CN1CCC(c2noc3ccsc23)CC1)N1CCN(C/C=C/c2ccccc2)CC1 [compound 829467] | 9.01 | –
13 | O=C(NCCc1ccccn1)[C@@H]1C[C@H]1CN1CCC(c2noc3ccsc23)CC1 [compound 831274] | 17.4 | –
14 | O=C([C@@H]1C[C@H]1CN1CCC(c2noc3ccsc23)CC1)N1CCC(Cn2ccnc2)CC1 [compound 831957] | 63.2 | –
15 | CC1CCC(NC(=O)C2CC2CN2CCCN(c3noc4ccsc34)CC2)CC1 (racemic) [compound 830126] | 23.8 | –
16 | O=C(NC1CCNCC1)[C@@H]1C[C@H]1CN1CCC(c2noc3ccsc23)CC1 [compound 833383] | 2.57 | –
17 | O=C(NCCCc1ccccc1)[C@@H]1C[C@H]1CN1CCN(c2csc3cc(C(F)(F)F)ccc23)CC1 [compound 831270] | 17.8 | –
18 | O=C(NCCN1CCNC1=O)[C@@H]1C[C@H]1CN1CCN(c2csc3cc(C(F)(F)F)ccc23)CC1 [compound 832498] | 70.3 | –
19 | O=C(NCCS(=O)(=O)c1cccc2c(Cl)cccc12)[C@@H]1C[C@H]1CN1CCC(c2noc3ccsc23)CC1 [compound 832528] | 48.5 | –
20 | O=C(NCc1ccco1)C1CC1CN1CCC(c2noc3ccsc23)CC1 (racemic) [compound 827393] | 391 | –
21 | CCC(C)OC(=O)n1cc(C2CCN(C[C@@H]3C[C@H]3C(=O)N3CCC[C@@H](Cn4ccnc4)C3)CC2)c2ccc(C(F)(F)F)cc21 (stereo partly shown) [A002437355] | 1.87 | –
22 | COc1c(F)ccc2c(C3CCN(CC4CC4C(=O)NC4CCC(C)CC4)CC3)noc12 (racemic) [compound 830134] | 0.602 | –
23 | COc1cccc2c(C3CCN(C[C@@H]4C[C@H]4C(=O)N4CCC[C@@H](Cn5ccnc5)C4)CC3)noc12 [A002437359, (3S-Imidazol-1-ylmethyl-piperidin-1-yl)-{2R-[4-(7-methoxy-benzo[d]isoxazol-3-yl)-piperidin-1-ylmethyl]-1R-cyclopropyl}-methanone] | 0.541 | –
24 | COc1ccc2c(c1)c(N1CCN(C[C@@H]3C[C@H]3C(=O)NCCc3ccc(F)cc3)CC1)nn2C [compound 833629] | 2.69 | –
25 | C[C@H]1CC[C@H](NC(=O)[C@H]2C[C@@H]2CN2CCN(c3noc4ccsc34)CC2)CC1 [compound 831082] | 38.2 | –

Row | SMILES | Ki (read-out: D3 Ki) [nM] | Ki (read-out: d3Ki) [nM]
26 | O=C(NC1CCN(Cc2cccc(F)c2F)CC1)C1CC1CN1CCC(c2noc3ccsc23)CC1 (racemic) [compound 832340] | 11.5 | –
27 | COc1ccc(CCNC(=O)[C@@H]2C[C@H]2CN2CCC(c3noc4ccsc34)CC2)cc1 [compound 831344] | 22.1 | –
28 | O=C(C1CC1CN1CCC(c2noc3ccsc23)CC1)N1CCN(CCc2cccs2)CC1 (racemic) [compound 832049] | 6.54 | –
29 | O=C(N[C@H]1CC[C@H](O)CC1)[C@@H]1C[C@H]1CN1CCC(c2noc3c(C(F)(F)F)cccc23)CC1 [compound 832271] | 112 | –
30 | O=C(NCCCc1ccccc1)[C@@H]1C[C@H]1CN1CCC(c2noc3ccsc23)CC1 [compound 830828] | 8.57 | –
31 | COc1ccc(N2CCN(CC3CC3C(=O)NC3CCC(C)CC3)C(C)C2)cc1 (racemic) [compound 827192] | 150 | –
32 | O=C(CCCN1CCN(c2csc3cc(F)ccc23)CC1CCCc1ccccc1)N(CCO)C1CCCCC1 (stereo not shown) [compound 827111] | – | 14.3
33 | CN1CCN(CCCNC(=O)[C@@H]2C[C@H]2CN2CCC(c3noc4c(C(F)(F)F)cccc34)CC2)CC1 [A002438639] | 97.3 | –
34 | COc1ccc(C2=CCN(C(=O)C3CC3CN3CCC(c4noc5ccsc45)CC3)CC2)cc1 (racemic) [compound 831599] | 49.8 | –
35 | COc1c(F)ccc2c(C3CCN(CCC4(C(=O)N[C@H]5CC[C@H](O)CC5)CC4)CC3)noc12 [compound 833476] | 131 | –
36 | O=C(NCCNc1ccccc1)C1CC1CN1CCC(c2noc3ccsc23)CC1 (racemic) [compound 831603] | 20.9 | –
37 | CCOC(=O)c1cc2ccc(N3CCCN(CC4CC4C(=O)NC4CCC(CC)CC4)CC3)cc2s1 (racemic) [compound 830128] | 69.7 | –
38 | CC1CCC(NC(=O)C2CC2CN2CCN(c3n[nH]c4ccccc34)CC2)CC1 (racemic) [compound 830116] | 13.1 | –
39 | O=C(NCCCn1ccnc1)[C@@H]1C[C@H]1CN1CCC(c2cc3ccccc3s2)CC1 [compound 831488] | 0.725 | –
40 | O=C([C@@H]1C[C@H]1CN1CCN(c2nc3cccc4c3n2CCC4)CC1)N1CCC[C@@H](Cn2ccnc2)C1 [A002438663] | 1.37 | –
41 | O=C(NC1CCN(C(=O)c2cccc(Cl)c2)CC1)C1CC1CN1CCC(c2noc3ccsc23)CC1 (racemic) [compound 832488] | 39.5 | –
42 | O=C(C1CC1CN1CCC(c2noc3ccsc23)CC1)N1CCN(Cc2ccc(F)cc2)CC1 (racemic) [compound 832164] | 6.6 | –
43 | CC(C)N1CCN(C(=O)[C@@H]2C[C@H]2CN2CCC(c3noc4ccsc34)CC2)CC1 [compound 833127] | 79.6 | –
44 | O=C(C1CC1CN1CCC(c2noc3ccsc23)CC1)N1CCC(Oc2ccc(F)cc2)CC1 (racemic) [compound 829595] | 201 | –
45 | O=C(NCCCN1CCCCCC1)[C@@H]1C[C@H]1CN1CCN(c2csc3cc(C(F)(F)F)ccc23)CC1 [compound 832511] | 12.3 | –
46 | O=C(NCCCn1cccc1)[C@@H]1C[C@H]1CN1CCC(c2noc3ccsc23)CC1 [compound 831376] | 40.3 | –
47 | O=C(C1CC1CN1CCC(c2noc3ccsc23)CC1)N1CCN(Cc2ccncc2)CC1 (racemic) [compound 831999] | 473 | –
48 | O=C(NCC1CCNCC1)[C@@H]1C[C@H]1CN1CCC(c2noc3c(C(F)(F)F)cccc23)CC1 [A002440437A] | 41.2 | –
49 | O=C([C@@H]1C[C@H]1CN1CCC(c2noc3ccsc23)CC1)N1CCC(CCN2CCCC2)CC1 [compound 833509] | 41.5 | –
